In data set [1] the test system is MOLM-13-luc.c4 (AML) human AML cells. The data set can be described thus: Antitumor efficacy and survival / increase in life span (ILS) in disseminated MOLM-13.luc.c4 AML model. It counts as in vivo, SCID beige mice. As to conditions: for tumor burden by BLI photon counts: 5 million cells, treatment from day 3, vs Vehicle-treated control mice (FIG. 1); for Median survival: vehicle control 20.5 days. Here is the method:
(§1) Female SCID beige mice (10/group), obtained from Charles River Laboratories (Wilmington, Del.) were used when they were approximately 8-12 weeks old and weighed approximately 20-25 grams. The health of the mice was assessed daily by gross observation and analyses of blood samples taken from sentinel animals housed on shared shelf racks. All animals were allowed to acclimate and recover from any shipping-related stress for a minimum of 72 hours prior to experimental use. Autoclaved water and irradiated food (5058-ms Pico Lab mouse chow, Purina Mills, Richmond, Ind.) were provided ad libitum, and the animals were maintained on a 12 hour light and dark cycle. Cages, bedding and water bottles were autoclaved before use and changed weekly. All animal experiments were conducted in accordance with the Guide for the Care and Use of Laboratory Animals, local regulations, and protocols approved by the Roche Animal Care and Use Committee in an AAALAC accredited facility.
Parental MOLM-13 human AML cells were stably transfected with Luc2 lentiviral particles for 24 hrs in the presence of Polybrene (8 ug/ml) and then selected in the presence of Blasticidin for 3 weeks. Subsequently, one clone was selected by single cell plating in the presence of 0.1 mg/mL G418 and was designated MOLM-13.luc.c4. The lentiviral Luc2 expression plasmid was constructed by incorporating Luc2 gene (Promega) in to pLOC lentiviral plasmid backbone (Thermo Fisher Scientific). Luc2 lentiviral particles were prepared by using Trans-Lentiviral Packaging System (Thermo Fisher Scientific) as recommended.
MOLM-13.luc.c4 was maintained with RPMI 1640 with L-glutamine (2 mM) media (GIBCO/Invitrogen, Carlsbad, Calif.) supplemented with 10% heat-inactivated Fetal Bovine Serum (HI-FBS; GIBCO/Invitrogen, Carlsbad, Calif.), and 1% 100 mM sodium pyruvate. Freshly dissociated MOLM13-Luc.c4 cells (1×106 or 5×106) suspended in Phosphate Buffered Saline (PBS) were then intravenously inoculated via the caudal tail vein into female SCID-beige mice.
It was then filtered thru a 0.22 micron filter into a septum sealed vial for intravenous administration. […] Stock cytarabine (Ara-C injection, 100 mg/ml) was diluted in sterile 0.9% sodium chloride to 44 mg/ml according to manufacturer's instructions and dosed at 200 mg/kg iv twice weekly.
Treatment duration was 3 weeks.
(§2) For increased life span (ILS) assessment, animal body weights were measured two to three times per week, and animals were monitored daily for any clinical signs of toxicity or excessive tumor burden (i.e. hind limb paralysis or morbidity). In addition, progression of disease was monitored by in vivo bioluminescent imaging (BLI) using IVIS® Spectrum system. For each BLI session, mice received 100 mg/kg D-luciferin (Caliper Life Sciences/Perkin-Elmer) via ip injections and were imaged at 20 min post luciferin injection at either a 5 s or a 10 s exposure time. Images were captured by the IVIS® Spectrum system and data were collected and analyzed with Living Image 4.2.0 software (Caliper Life Sciences, Hopkinton, Mass.). Total photon fluxes (ph/s) representing luciferase activity within each fixed region of interest (ROI) covering whole tumors of individual mice were determined. The actual images of mice are not disclosed herein.
Quantification of bioluminescence allowed for direct longitudinal comparison of tumor burden between treatment groups prior to surrogate death end points being reached. Tumor burden was graphically represented as the mean BLI photon flux+standard error of the mean (SEM), and median survival was determined utilizing Kaplan Meier survival analysis. Statistical analysis of comparisons between groups was analyzed by two-way ANOVA, and post-hoc Bonferroni test (GraphPad Prism, version 4.3). Differences between groups were considered to be significant when the probability value (p) was ≤0.05.

For data set [2] the following is noted: Ara-C 200 mg/kg 2x/week iv; 10 mice/group. Here is the method:
as §1, with “Cages, bedding and water bottles were autoclaved before use and changed weekly. All animal experiments were conducted in accordance with the Guide for the Care and Use of Laboratory Animals, local regulations, and protocols approved by the Roche Animal Care and Use Committee in an AAALAC accredited facility.” left out
as §2, with “For each BLI session, mice received 100 mg/kg D-luciferin (Caliper Life Sciences/Perkin-Elmer) via ip injections and were imaged at 20 min post luciferin injection at either a 5 s or a 10 s exposure time.” left out, “The actual images of mice are not disclosed herein.” left out

As to `Nc1ccn([C@@H]2O[C@H](CO)[C@@H](O)[C@@H]2O)c(=O)n1` [Ara-C, cytarabine], in data set [1], the “tumor burden by BLI photon counts” value is reported as “no difference” and the “monotherapy antitumor activity as assessed by tumor burden (BLI) or ILS” value is listed as “lack of monotherapy activity”. In data set [1] (Ara-C 200 mg/kg 2x/wk iv), the “% ILS vs. Vehicle control” value worked out at 0% and the “Median survival” value is given as 20 days. Besides, in data set [1] (listed as Cytarabine (Ara-C)), the “monotherapy antitumor activity as assessed by tumor burden (BLI) or ILS” value is reported as “lack of antitumor activity”. The compound also returned a Mortality in data set [2] of 0.
As for “4-{[(2R,3S,4R,5S)-3-(3-Chloro-2-fluoro-phenyl)-4-(4-chloro-2-fluoro-phenyl)-4-cyano-5-(2,2-dimethyl-propyl)-pyrrolidine-2-carbonyl]amino}-3-methoxy-benzoic acid 1-mPEG-carbonyloxy-ethyl ester (mPEG, average MW, ˜2200) [compound I-B]”, the “tumor burden by BLI photon counts” value in data set [1] is “significantly reduced photon counts”. In addition, the “% ILS vs. Vehicle control” value in data set [1] (Cpd I-B 437 mg/kg q7d iv, p < 0.05 vs vehicle) was 37%; in data set [1] (Cpd I-B 437 mg/kg q7d iv, p < 0.05 vs vehicle, listed as Cpd I-B), “*37%”. Also, the “Median survival” value in data set [1] (Cpd I-B 437 mg/kg q7d iv) was found to be 28 days.
